What was measured:
[1] = molecular target: Transducin beta-like protein 3 (Homo sapiens) (UniProt Q12788); also: assay method not described here
[2] = molecular target: Phosphorylated adapter RNA export protein (Homo sapiens) (UniProt Q9H814); also: assay method not described here
[3] = molecular target: Sec1 family domain-containing protein 1 (Homo sapiens) (UniProt Q8WVM8); also: assay method not described here
[4] = molecular target: RNA polymerase-associated protein CTR9 homolog (Homo sapiens) (UniProt Q6PD62); also: assay method not described here
Homo sapiens [5] = organism: Homo sapiens; also: assay method not described here
[6] = molecular target: Origin recognition complex subunit 3 (Homo sapiens) (UniProt Q9UBD5); also: assay method not described here
[7] = molecular target: Cytochrome c oxidase assembly protein COX14 (Homo sapiens) (UniProt Q96I36); also: assay method not described here
[8] = molecular target: Ribosome biogenesis protein WDR12 (Homo sapiens) (UniProt Q9GZL7); also: assay method not described here
[9] = molecular target: Exportin-4 (Homo sapiens) (UniProt Q9C0E2); also: assay method not described here
[10] = molecular target: Dolichyl-diphosphooligosaccharide--protein glycosyltransferase 48 kDa subunit (Homo sapiens) (UniProt P39656); also: assay method not described here
[11] = molecular target: E3 ubiquitin-protein ligase RNF5 (Homo sapiens) (UniProt Q99942); also: assay method not described here
[12] = molecular target: Vacuolar protein sorting-associated protein 51 homolog (Homo sapiens) (UniProt Q9UID3); also: assay method not described here
[13] = molecular target: YTH domain-containing family protein 2 (Homo sapiens) (UniProt Q9Y5A9); also: assay method not described here
[14] = molecular target: Arfaptin-2 (Homo sapiens) (UniProt P53365); also: assay method not described here
[15] = molecular target: Receptor for retinol uptake STRA6 (Homo sapiens) (UniProt Q9BX79); also: assay method not described here
[16] = molecular target: Kelch-like protein 6 (Homo sapiens) (UniProt Q8WZ60); also: assay method not described here
Homo sapiens [17] = organism: Homo sapiens; remark: listed apart in the source; also: assay method not described here
[18] = molecular target: Ubiquitin-protein ligase E3A (Homo sapiens) (UniProt Q05086); also: assay method not described here
[19] = molecular target: Retinoblastoma-binding protein 5 (Homo sapiens) (UniProt Q15291); also: assay method not described here
[20] = molecular target: 45 kDa calcium-binding protein (Homo sapiens) (UniProt Q9BRK5); also: assay method not described here
[21] = molecular target: Mitotic deacetylase-associated SANT domain protein (Homo sapiens) (UniProt Q6PJG2); also: assay method not described here
[22] = molecular target: Probable helicase with zinc finger domain (Homo sapiens) (UniProt P42694); also: assay method not described here
Cullin-5 (Homo sapiens) = Cullin-5 (Homo sapiens) (UniProt Q93034); also: assay method not described here
[23] = molecular target: Transcriptional repressor CTCF (Homo sapiens) (UniProt P49711); also: assay method not described here
[24] = molecular target: Programmed cell death protein 10 (Homo sapiens) (UniProt Q9BUL8); also: assay method not described here
[25] = molecular target: Protein YIF1A (Homo sapiens) (UniProt O95070); also: assay method not described here
[26] = molecular target: Splicing factor 3B subunit 2 (Homo sapiens) (UniProt Q13435); also: assay method not described here
[27] = molecular target: Cell growth-regulating nucleolar protein (Homo sapiens) (UniProt Q9NX58); also: assay method not described here
[28] = molecular target: WASH complex subunit 4 (Homo sapiens) (UniProt Q2M389); also: assay method not described here
[29] = molecular target: ALK tyrosine kinase receptor (Homo sapiens) (UniProt Q9UM73); also: assay method not described here
[30] = molecular target: Serine/threonine-protein kinase LMTK2 (Homo sapiens) (UniProt Q8IWU2); also: assay method not described here
[31] = molecular target: Serine/threonine-protein phosphatase 4 regulatory subunit 3A (Homo sapiens) (UniProt Q6IN85); also: assay method not described here
[32] = molecular target: Stearoyl-CoA desaturase (Homo sapiens) (UniProt O00767); also: assay method not described here
[33] = molecular target: DnaJ homolog subfamily C member 9 (Homo sapiens) (UniProt Q8WXX5); also: assay method not described here
[34] = molecular target: Putative uncharacterized protein ZNF436-AS1 (Homo sapiens) (UniProt Q8NC38); also: assay method not described here
[35] = molecular target: N(G),N(G)-dimethylarginine dimethylaminohydrolase 1 (Homo sapiens) (UniProt O94760); also: assay method not described here
[36] = molecular target: Parathymosin (Homo sapiens) (UniProt P20962); also: assay method not described here
[37] = molecular target: Ragulator complex protein LAMTOR3 (Homo sapiens) (UniProt Q9UHA4); also: assay method not described here
[38] = molecular target: Large ribosomal subunit protein bL9m (Homo sapiens) (UniProt Q9BYD2); also: assay method not described here
[39] = molecular target: Echinoderm microtubule-associated protein-like 4 (Homo sapiens) (UniProt Q9HC35); also: assay method not described here
[40] = molecular target: Membrane-bound glycerophospholipid O-acyltransferase 1 (Homo sapiens) (UniProt Q6ZNC8); also: assay method not described here
Homo sapiens [41] = organism: Homo sapiens; remark: listed apart in the source; also: assay method not described here
[42] = molecular target: PHD finger protein 6 (Homo sapiens) (UniProt Q8IWS0); also: assay method not described here
[43] = molecular target: NAD(P) transhydrogenase, mitochondrial (Homo sapiens) (UniProt Q13423); also: assay method not described here
[44] = molecular target: Dolichol-phosphate mannosyltransferase subunit 1 (Homo sapiens) (UniProt O60762); also: assay method not described here
[45] = molecular target: ATP synthase peripheral stalk subunit OSCP, mitochondrial (Homo sapiens) (UniProt P48047); also: assay method not described here
Ephrin type-A receptor 2 = Ephrin type-A receptor 2 (Homo sapiens, UniProt P29317); test: Binding affinity to recombinant human EPHA2 (D596 to G900 residues) expressed in insect cells incubated for 30 mins by MST assay; design: species or system Insect cell

Serine/threonine-protein kinase LMTK2 (Homo sapiens), sequence (Q8IWU2 whole entry): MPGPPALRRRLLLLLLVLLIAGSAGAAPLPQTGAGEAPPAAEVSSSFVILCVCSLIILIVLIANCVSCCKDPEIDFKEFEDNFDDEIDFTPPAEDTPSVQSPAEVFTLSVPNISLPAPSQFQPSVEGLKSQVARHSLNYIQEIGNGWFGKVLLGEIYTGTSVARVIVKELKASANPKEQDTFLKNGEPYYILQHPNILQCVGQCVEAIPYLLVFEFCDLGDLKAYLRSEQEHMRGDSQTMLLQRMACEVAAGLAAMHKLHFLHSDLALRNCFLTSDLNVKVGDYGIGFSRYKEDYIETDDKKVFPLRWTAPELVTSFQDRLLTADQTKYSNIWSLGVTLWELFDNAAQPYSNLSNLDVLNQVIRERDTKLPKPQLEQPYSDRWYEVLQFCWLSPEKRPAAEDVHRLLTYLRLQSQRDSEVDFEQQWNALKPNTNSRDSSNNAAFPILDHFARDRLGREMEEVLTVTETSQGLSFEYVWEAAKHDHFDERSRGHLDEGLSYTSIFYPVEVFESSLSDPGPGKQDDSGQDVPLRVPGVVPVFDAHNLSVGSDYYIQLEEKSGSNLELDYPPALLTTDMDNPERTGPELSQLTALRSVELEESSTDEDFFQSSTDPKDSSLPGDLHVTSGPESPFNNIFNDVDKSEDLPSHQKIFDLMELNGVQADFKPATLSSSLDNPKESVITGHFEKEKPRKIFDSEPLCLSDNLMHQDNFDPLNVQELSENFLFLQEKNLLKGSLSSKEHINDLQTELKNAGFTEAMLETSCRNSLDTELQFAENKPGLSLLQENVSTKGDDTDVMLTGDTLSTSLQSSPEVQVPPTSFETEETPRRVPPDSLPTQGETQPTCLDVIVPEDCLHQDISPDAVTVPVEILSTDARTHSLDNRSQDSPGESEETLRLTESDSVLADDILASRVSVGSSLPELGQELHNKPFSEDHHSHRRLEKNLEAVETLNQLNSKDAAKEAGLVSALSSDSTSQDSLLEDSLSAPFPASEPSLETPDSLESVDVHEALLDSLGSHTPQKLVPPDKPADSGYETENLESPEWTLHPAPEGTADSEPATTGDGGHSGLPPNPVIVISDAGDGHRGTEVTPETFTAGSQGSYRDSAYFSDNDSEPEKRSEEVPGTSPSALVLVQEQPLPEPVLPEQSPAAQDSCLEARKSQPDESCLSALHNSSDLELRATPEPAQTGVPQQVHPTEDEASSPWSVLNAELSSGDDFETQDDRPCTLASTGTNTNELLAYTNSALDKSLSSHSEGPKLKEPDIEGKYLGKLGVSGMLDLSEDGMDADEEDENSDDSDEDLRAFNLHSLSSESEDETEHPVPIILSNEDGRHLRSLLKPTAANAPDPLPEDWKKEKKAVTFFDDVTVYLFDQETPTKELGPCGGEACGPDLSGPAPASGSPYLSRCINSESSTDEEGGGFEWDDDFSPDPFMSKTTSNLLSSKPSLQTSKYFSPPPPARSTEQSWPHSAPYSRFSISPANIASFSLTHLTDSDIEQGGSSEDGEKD
Cytochrome c oxidase assembly protein COX14 (Homo sapiens), sequence (Q96I36 whole entry): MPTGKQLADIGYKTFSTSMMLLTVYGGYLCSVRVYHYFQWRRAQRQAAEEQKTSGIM
Splicing factor 3B subunit 2 (Homo sapiens), sequence (Q13435 whole entry): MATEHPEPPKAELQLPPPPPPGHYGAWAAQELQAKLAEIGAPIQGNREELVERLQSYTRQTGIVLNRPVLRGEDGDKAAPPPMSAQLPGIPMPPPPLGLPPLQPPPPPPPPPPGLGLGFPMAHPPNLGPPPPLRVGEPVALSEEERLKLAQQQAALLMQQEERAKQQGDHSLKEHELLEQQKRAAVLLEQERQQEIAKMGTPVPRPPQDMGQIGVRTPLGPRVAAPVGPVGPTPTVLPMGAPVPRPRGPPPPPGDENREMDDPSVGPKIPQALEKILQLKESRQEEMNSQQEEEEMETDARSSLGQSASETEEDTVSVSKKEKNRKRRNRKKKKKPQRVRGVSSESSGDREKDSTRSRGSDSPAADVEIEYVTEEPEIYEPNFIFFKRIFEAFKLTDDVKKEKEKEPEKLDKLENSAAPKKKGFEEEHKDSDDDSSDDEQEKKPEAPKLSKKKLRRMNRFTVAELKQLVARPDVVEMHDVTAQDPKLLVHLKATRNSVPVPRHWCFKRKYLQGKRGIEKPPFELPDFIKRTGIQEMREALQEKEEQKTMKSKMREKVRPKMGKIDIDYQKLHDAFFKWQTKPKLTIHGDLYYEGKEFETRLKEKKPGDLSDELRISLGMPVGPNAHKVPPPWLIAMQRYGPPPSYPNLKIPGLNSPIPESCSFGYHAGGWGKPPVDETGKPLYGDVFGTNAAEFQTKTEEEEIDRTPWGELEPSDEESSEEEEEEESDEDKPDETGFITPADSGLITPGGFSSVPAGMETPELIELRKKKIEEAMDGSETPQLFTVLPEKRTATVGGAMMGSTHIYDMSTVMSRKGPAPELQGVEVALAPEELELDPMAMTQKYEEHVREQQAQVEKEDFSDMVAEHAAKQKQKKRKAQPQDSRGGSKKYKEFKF
Kelch-like protein 6 (Homo sapiens), sequence (Q8WZ60 whole entry): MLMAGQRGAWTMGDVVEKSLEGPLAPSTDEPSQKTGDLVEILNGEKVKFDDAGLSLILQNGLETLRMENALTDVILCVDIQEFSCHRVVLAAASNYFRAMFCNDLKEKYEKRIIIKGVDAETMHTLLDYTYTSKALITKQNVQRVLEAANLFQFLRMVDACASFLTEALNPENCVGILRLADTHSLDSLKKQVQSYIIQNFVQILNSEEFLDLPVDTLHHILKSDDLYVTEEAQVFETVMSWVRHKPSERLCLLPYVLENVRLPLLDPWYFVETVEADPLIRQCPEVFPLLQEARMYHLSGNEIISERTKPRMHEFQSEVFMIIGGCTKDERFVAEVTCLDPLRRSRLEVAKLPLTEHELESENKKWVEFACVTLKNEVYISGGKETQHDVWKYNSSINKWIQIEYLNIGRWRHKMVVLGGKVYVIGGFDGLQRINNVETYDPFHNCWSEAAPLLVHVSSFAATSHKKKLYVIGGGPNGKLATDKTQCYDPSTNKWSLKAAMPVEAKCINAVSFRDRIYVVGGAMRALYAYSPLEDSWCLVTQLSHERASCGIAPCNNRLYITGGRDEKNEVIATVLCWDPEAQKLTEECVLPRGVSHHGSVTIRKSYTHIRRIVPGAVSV
45 kDa calcium-binding protein (Homo sapiens), sequence (Q9BRK5 whole entry, the tested form may be a part): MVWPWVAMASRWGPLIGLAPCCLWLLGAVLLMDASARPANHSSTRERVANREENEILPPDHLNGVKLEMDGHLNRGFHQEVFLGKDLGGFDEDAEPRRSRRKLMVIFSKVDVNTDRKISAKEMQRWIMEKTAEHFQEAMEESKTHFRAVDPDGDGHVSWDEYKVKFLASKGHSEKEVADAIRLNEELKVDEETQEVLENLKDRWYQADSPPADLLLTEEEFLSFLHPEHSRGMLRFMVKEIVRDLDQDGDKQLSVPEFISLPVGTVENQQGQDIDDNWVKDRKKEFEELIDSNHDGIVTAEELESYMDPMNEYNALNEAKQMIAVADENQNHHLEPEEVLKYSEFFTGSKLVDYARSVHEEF
Receptor for retinol uptake STRA6 (Homo sapiens), sequence (Q9BX79 whole entry): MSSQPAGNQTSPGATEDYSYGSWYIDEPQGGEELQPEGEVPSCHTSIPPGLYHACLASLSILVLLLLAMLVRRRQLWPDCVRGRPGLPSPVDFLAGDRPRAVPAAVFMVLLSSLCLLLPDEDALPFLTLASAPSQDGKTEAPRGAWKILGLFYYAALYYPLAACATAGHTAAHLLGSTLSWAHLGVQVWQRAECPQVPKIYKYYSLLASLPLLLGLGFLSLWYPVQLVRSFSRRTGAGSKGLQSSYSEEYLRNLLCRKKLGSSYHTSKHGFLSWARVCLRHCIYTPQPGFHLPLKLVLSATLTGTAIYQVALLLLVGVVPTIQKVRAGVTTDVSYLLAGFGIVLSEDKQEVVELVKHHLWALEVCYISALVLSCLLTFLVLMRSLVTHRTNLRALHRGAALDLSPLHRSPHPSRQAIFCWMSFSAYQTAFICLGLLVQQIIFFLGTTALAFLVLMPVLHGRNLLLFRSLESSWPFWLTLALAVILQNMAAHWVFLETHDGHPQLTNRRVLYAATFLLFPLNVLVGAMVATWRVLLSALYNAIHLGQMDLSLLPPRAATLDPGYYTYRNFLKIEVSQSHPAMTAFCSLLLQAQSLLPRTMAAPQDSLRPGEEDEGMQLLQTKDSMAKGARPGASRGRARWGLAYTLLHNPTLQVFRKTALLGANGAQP
Protein YIF1A (Homo sapiens), sequence (O95070 whole entry): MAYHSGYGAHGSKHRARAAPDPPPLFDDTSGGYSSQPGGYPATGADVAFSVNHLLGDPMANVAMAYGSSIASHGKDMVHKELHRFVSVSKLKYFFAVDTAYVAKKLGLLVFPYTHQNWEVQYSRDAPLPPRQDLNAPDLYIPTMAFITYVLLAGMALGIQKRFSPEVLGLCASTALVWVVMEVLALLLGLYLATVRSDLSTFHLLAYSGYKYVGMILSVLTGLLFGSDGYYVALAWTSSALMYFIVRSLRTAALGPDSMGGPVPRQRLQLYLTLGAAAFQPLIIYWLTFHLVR
Putative uncharacterized protein ZNF436-AS1 (Homo sapiens), sequence (Q8NC38 whole entry): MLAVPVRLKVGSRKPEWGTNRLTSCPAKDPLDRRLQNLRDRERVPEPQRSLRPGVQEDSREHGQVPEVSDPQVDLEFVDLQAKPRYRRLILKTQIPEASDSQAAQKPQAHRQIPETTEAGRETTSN
Membrane-bound glycerophospholipid O-acyltransferase 1 (Homo sapiens), sequence (Q6ZNC8 whole entry): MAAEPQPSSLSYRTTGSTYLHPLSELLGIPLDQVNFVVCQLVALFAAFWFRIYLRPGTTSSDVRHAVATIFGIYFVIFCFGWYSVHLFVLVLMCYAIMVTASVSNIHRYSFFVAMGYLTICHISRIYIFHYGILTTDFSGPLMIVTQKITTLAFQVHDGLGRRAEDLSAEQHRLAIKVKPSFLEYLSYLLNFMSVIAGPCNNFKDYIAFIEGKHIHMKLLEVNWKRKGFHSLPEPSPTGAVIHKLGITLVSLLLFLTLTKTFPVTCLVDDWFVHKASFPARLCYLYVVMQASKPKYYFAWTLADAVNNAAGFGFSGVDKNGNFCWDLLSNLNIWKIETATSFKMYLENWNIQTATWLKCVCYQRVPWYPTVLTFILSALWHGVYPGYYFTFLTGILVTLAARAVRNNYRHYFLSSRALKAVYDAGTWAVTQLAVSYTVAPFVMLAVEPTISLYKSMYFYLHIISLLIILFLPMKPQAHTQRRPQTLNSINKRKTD

`Cc1ccc(C(=O)Nc2cccc(C(F)(F)F)c2)cc1Nc1nc(-c2cccnc2)nc2c1cnn2C` showed an ED50 [1] of 4.7 µM, an ED50 [2] of 3.51 µM and an ED50 [3] of 0.171 µM. It also gave an ED50 [4] of 5.72 µM, an ED50 (Homo sapiens [5]) of 0.192 µM and an ED50 [6] of 22.9 µM. The ED50 [7] was 0.00496 µM, the ED50 [8] was 0.00121 µM and the ED50 [9] was 0.00594 µM. For the same compound, the ED50 [10] was 0.169 µM, the ED50 [11] was 23.2 µM and the ED50 [12] was 5.2 µM. It also gave an ED50 [13] of 0.0685 µM, an ED50 [14] of 211 µM and an ED50 [15] of 0.0735 µM. It also gave an ED50 [16] of 0.0567 µM, an ED50 (Homo sapiens [17]) of 15.7 µM and an ED50 [18] of 6.96 µM. The ED50 [19] was 21.2 µM, the ED50 [20] was 0.519 µM and the ED50 [21] was 12.8 µM. It also gave an ED50 [22] of 0.00939 µM, an ED50 (Cullin-5 (Homo sapiens)) of 0.676 µM and an ED50 [23] of 1.99 µM. It also gave an ED50 [24] of 0.00215 µM, an ED50 [25] of 0.03 µM and an ED50 [26] of 0.00691 µM. It also gave an ED50 [27] of 4.37 µM, an ED50 [28] of 0.0229 µM and an ED50 [29] of 0.00143 µM. For the same compound, the ED50 [30] was 2.39 µM, the ED50 [31] was 0.033 µM and the ED50 [32] was 0.00465 µM. The ED50 [33] was 8.8 µM, the ED50 [34] was 8.64 µM and the ED50 [35] was 61.8 µM. The ED50 [36] was 0.0394 µM, the ED50 [37] was 0.816 µM and the ED50 [38] was 9.58 µM. For the same compound, the ED50 [39] was 0.761 µM, the ED50 [40] was 0.9 µM and the ED50 (Homo sapiens [41]) was 1590 µM. For the same compound, the ED50 [42] was 2.01 µM.

Compound `Cc1ccc(C(=O)Nc2cccc(C(F)(F)F)c2)cc1Nc1nc(-c2cccnc2)nc2nn(C)cc12` has an ED50 [43] of 0.00568 µM, an ED50 [44] of 2.9 µM and an ED50 [45] of 0.0206 µM. The Kd (Ephrin type-A receptor 2) was 0.073 µM.
